Results from US20030083342A1, “Combination of organic compounds” (priority 2002, published 2003).
Read-outs that look alike come from different tables or passages of the source.

How the values were obtained:
response to Ang I = assay: Response to injected Ang I in pretreated Wistar Kyoto rats; assay type: in vivo; settings: Wistar Kyoto rats pretreated with (+)-fadrozole hydrochloride or valsartan 5 mg/kg/d; comparison of the two pretreatments
Procedure: The rats are divided into 5 groups: group 1, control (n=40); Group 2, valsartan (5 mg/kg/d; n=40); Group 3, the (+)-enantiomer of the hydrochloride of fadrozole (n=30); Group 4, a combination of the (+)-enantiomer of the hydrochloride of fadrozole and valsartan (5 mg/kg/d); n=30) and Group 5, valsartan (50 mg/kg/d; n=30). The drugs are administered in drinking fluid.

pressor effect of Ang II = settings: Ang II at 1 mg/kg, normotensive rats, cited from earlier work

Row | SMILES | response to Ang I injected (response to Ang I) | reduction of the pressor effect of Ang II (pressor effect of Ang II; valsartan 5 mg/kg/d) [%] | reduction of the pressor effect of Ang II (pressor effect of Ang II; valsartan 50 mg/kg/d) [%]
1 | Cl.N#Cc1ccc([C@H]2CCCc3cncn32)cc1 [(+)-enantiomer of the hydrochloride of fadrozole] | similar |  | 
2 | CCCCC(=O)N(Cc1ccc(-c2ccccc2-c2nnn[nH]2)cc1)[C@H](C(=O)O)C(C)C [valsartan, (S)-N-(1-carboxy-2-methylprop-1-yl)-N-pentanoyl-N-[2′(1H-tetrazol-5-yl)biphenyl-4-yl-methyl]amine] | similar | 49 | 73
